# Measured values taken from patent publication US20240116863A1, “DIPHENYL THIOUREA AND DIPHENYL UREA DERIVATIVES AS INHIBITORS OF ENDOCYTOSIS” (priority 2022, published 2024).
# Key:
# SARS-CoV-2 D614G strain = type: cell-based
# IAV WSN = type: cell-based, influenza A virus
Structure (SMILES),blocked SARS-CoV-2 infections (SARS-CoV-2 D614G strain),reduction of SARS-CoV-2 infection (SARS-CoV-2 D614G strain),reduction in viral titre after tenth passage (IAV WSN) [log]
"O=C(Nc1ccccc1)Nc1ccccc1 [DPU, 1,3-diphenylurea, reference compound]",did not show any inhibitory effect,,
"O=C(Nc1cc(C(F)(F)F)cc(C(F)(F)F)c1)Nc1cc(C(F)(F)F)cc(C(F)(F)F)c1 [DPUD-1, 1,3-bis(3,5-bis(trifluoromethyl)phenyl)urea]",,greater than 99%,> 5
